Measured values reported in patent US20240279241A1, “PYRIDO[4,3-D]PYRIMIDINE COMPOUNDS CAPABLE OF INHIBITING KRAS MUTANT PROTEINS” (Redx Pharma PLC, priority 2021, published 2024).
pIC50: −log10 of the molar value. Like-named read-outs stand apart in the source and are kept apart here.

What was measured:
KRAS WT = target: T1, KRAS WT (Homo sapiens, UniProt P01116); assay: HTRF nucleotide exchange assay (NEA), KRAS WT; assay type: biochemical
T1 construct: Recombinant human RAS protein (2 nM); aa1-188 KRAS WT
T1 sequence (P01116 1-188 isoform P01116-2): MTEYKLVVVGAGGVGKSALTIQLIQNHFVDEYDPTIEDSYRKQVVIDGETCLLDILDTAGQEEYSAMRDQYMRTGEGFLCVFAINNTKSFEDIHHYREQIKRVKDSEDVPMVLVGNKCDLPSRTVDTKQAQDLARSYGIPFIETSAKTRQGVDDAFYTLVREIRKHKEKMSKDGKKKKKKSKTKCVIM
Experimental: (§1) The capacity of compounds to bind KRAS G12D, other KRAS mutants and wildtype RAS isoforms was quantified using a HTRF nucleotide exchange assay. Recombinant human RAS protein (2 nM; aa1-188 KRAS WT, HRAS WT, NRAS WT, or KRAS containing the containing the G12D, G13D or Q61H amino acid substitutions, or 4 nM KRAS; aa1-188 containing the G12V, G12C, G12A or G12S amino acid substitution, an N-terminal 6×His-tag and leader sequence), and 2 nM Europium-labeled anti-6×His antibody were mixed in assay buffer (10 mM HEPES pH7.3, 150 mM NaCl, 5 mM MgCl2, 0.05% BSA, 0.0025% NP-40 and 100 mM KF) with various concentrations of compound in a 384-well plate and a volume of 5 uL. After a 60-minute incubation at room temperature, 5 ul of 200 nM EDA-GTP-DY647P1 (diluted in assay buffer) was added to the plate. Following 30-minute incubation at room temperature, time-resolved fluorescence was measured on a PerkinElmer Envision plate reader. DMSO (0.3%) and unlabeled […] (1 μM) or equivalent tool compound were used to generate the Max and Min assay signals, respectively. Data was analysed using a four-parameter logistic model to calculate IC50 values, with at least two independent replicates were performed for each compound.

KRAS G12D = target: T2, KRAS G12D (Homo sapiens, UniProt P01116, G12D); assay: HTRF nucleotide exchange assay (NEA), KRAS G12D; assay type: biochemical; details: recombinant human KRAS G12D aa1-188, 2 nM; lowest class = % inhibition at 10 μM
T2 construct: Recombinant human RAS protein (2 nM)
T2 sequence (P01116 1-188 isoform P01116-2 G12D): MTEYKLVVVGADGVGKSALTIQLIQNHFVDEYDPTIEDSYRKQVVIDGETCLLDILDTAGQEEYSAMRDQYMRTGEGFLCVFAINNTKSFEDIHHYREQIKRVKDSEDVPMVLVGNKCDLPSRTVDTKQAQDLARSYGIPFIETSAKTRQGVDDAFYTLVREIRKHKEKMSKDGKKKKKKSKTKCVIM
Experimental: as §1

Compound	pIC50 (KRAS WT)	pIC50 (KRAS G12D)	pIC50 (KRAS WT; recombinant human KRAS WT aa1-188, 2 nM, lowest class = % inhibition at 10 μM)
C#Cc1c(F)ccc2cc(O)cc(-c3ncc4c(N5CCNC(=O)CC5)nc(OC[C@@]56CCCN5C[C@H](F)C6)nc4c3F)c12 (relative stereo) [Example 87, 1-[7-(8-ethynyl-7-fluoro-3-hydroxy-1-naphthyl)-8-fluoro-2-[[trans-2-fluoro-1,2,3,5,6,7-hexahydropyrrolizin-8-yl]methoxy]pyrido [4,3-d]pyrimidin-4-yl]-1,4-diazepan-5-one]	≥ 8.00	≥ 8.00	
Nc1nc2c(-c3ncc4c(N5CCCOCC5)nc(OC[C@@]56CCCN5C[C@H](F)C6)nc4c3F)cccc2s1 (relative stereo) [Example 94, 4-[8-fluoro-4-(1,4-oxazepan-4-yl)-2-[[trans-2-fluoro-1,2,3,5,6,7-hexahydropyrrolizin-8-yl]methoxy]pyrido[4,3-d]pyrimidin-7-yl]-1,3-benzothiazol-2-amine]	5.00 to 7.00	5.00 to 7.00	
COCCNc1nc(OCC23CCCN2CCC3)nc2c(F)c(-c3cc(O)cc4ccccc34)ncc12 [Example 12]	5.00 to 7.00	5.00 to 7.00	
Oc1cc(-c2ncc3c(NC4CCOCC4)nc(OCC45CCCN4CCC5)nc3c2F)c2ccccc2c1 [Example 15, 4-[8-fluoro-2-(1,2,3,5,6,7-hexahydropyrrolizin-8-ylmethoxy)-4-(tetrahydropyran-4-ylamino)pyrido[4,3-d]pyrimidin-7-yl]naphthalen-2-ol]	5.00 to 7.00	5.00 to 7.00	
CN(c1nc(OCC23CCCN2CCC3)nc2c(F)c(-c3cc(O)cc4ccccc34)ncc12)C1CCOCC1 [Example 23, 4-[8-fluoro-2-(1,2,3,5,6,7-hexahydropyrrolizin-8-ylmethoxy)-4-[methyl(tetrahydro-pyran-4-yl)amino]pyrido[4,3-d]pyrimidin-7-yl]naphthalen-2-ol]	5.00 to 7.00	5.00 to 7.00	
COCCCNc1nc(OCC23CCCN2CCC3)nc2c(F)c(-c3cc(O)cc4ccccc34)ncc12 [Example 29, 4-[8-fluoro-2-(1,2,3,5,6,7-hexahydropyrrolizin-8-ylmethoxy)-4-(3-methoxypropylamino)pyrido[4,3-d]pyrimidin-7-yl]naphthalen-2-ol]		5.00 to 7.00	5.00 to 7.00
CC(C)OCCCNc1nc(OCC23CCCN2CCC3)nc2c(F)c(-c3cc(O)cc4ccccc34)ncc12 [Example 30, 4-[8-fluoro-2-(1,2,3,5,6,7-hexahydropyrrolizin-8-ylmethoxy)-4-(3-isopropoxypropyl-amino)pyrido[4,3-d]pyrimidin-7-yl]naphthalen-2-ol]	5.00 to 7.00	5.00 to 7.00	
OCCCNc1nc(OCC23CCCN2CCC3)nc2c(F)c(-c3cc(O)cc4ccccc34)ncc12 [Example 39, 4-[8-fluoro-2-(1,2,3,5,6,7-hexahydropyrrolizin-8-ylmethoxy)-4-(3-hydroxypropylamino)pyrido[4,3-d]pyrimidin-7-yl]naphthalen-2-ol]	5.00 to 7.00	5.00 to 7.00	
CN(C)C(=O)CCNc1nc(OCC23CCCN2CCC3)nc2c(F)c(-c3cc(O)cc4ccccc34)ncc12 [Example 40, 3-[[8-fluoro-2-(1,2,3,5,6,7-hexahydropyrrolizin-8-ylmethoxy)-7-(3-hydroxy-1-naphthyl)pyrido[4,3-d]pyrimidin-4-yl]amino]-N,N-dimethyl-propanamide]	5.00 to 7.00	5.00 to 7.00	
COCC(C)(C)CNc1nc(OCC23CCCN2CCC3)nc2c(F)c(-c3cc(O)cc4ccccc34)ncc12 [Example 43, 4-[8-fluoro-2-(1,2,3,5,6,7-hexahydropyrrolizin-8-ylmethoxy)-4-[(3-methoxy-2,2-dimethyl-propyl)amino]pyrido [4,3-d]pyrimidin-7-yl]naphthalen-2-ol]	5.00 to 7.00	5.00 to 7.00	
COCCC(C)Nc1nc(OCC23CCCN2CCC3)nc2c(F)c(-c3cc(O)cc4ccccc34)ncc12 (stereo not drawn) [Example 44, 4-[8-fluoro-2-(1,2,3,5,6,7-hexahydropyrrolizin-8-ylmethoxy)-4-[(3-methoxy-1-methyl-propyl)amino]pyrido [4,3-d]pyrimidin-7-yl]naphthalen-2-ol]	5.00 to 7.00	5.00 to 7.00	
COC(C)(C)CCNc1nc(OCC23CCCN2CCC3)nc2c(F)c(-c3cc(O)cc4ccccc34)ncc12 [Example 54, 4-[8-fluoro-2-(1,2,3,5,6,7-hexahydropyrrolizin-8-ylmethoxy)-4-[(3-methoxy-3-methyl-butyl)amino]pyrido [4,3-d]pyrimidin-7-yl]naphthalen-2-ol]	5.00 to 7.00	5.00 to 7.00	
Oc1cc(-c2ncc3c(N4CCn5nccc5C4)nc(OCC45CCCN4CCC5)nc3c2F)c2ccccc2c1 [Example 57, 4-[4-(6,7-dihydro-4H-pyrazolo[1,5-a]pyrazin-5-yl)-8-fluoro-2-(1,2,3,5,6,7-hexahydropyrrolizin-8-ylmethoxy)pyrido [4,3-d]pyrimidin-7-yl]naphthalen-2-ol]	5.00 to 7.00	5.00 to 7.00	

Continued, values first:

pIC50 (KRAS WT)	pIC50 (KRAS G12D)	pIC50 (KRAS WT; recombinant human KRAS WT aa1-188, 2 nM, lowest class = % inhibition at 10 μM)	Compound
5.00 to 7.00	5.00 to 7.00		COC1CCN(c2nc(OCC34CCCN3CCC4)nc3c(F)c(-c4cc(O)cc5ccccc45)ncc23)CC1 [Example 21, 4-[8-fluoro-2-(1,2,3,5,6,7-hexahydropyrrolizin-8-ylmethoxy)-4-(4-methoxy-1-piperidyl)pyrido[4,3-d]pyrimidin-7-yl]naphthalen-2-ol]
5.00 to 7.00	5.00 to 7.00		Oc1cc(-c2ncc3c(NC4CCCCC4)nc(OCC45CCCN4CCC5)nc3c2F)c2ccccc2c1 [Example 35, 4-[4-(cyclohexylamino)-8-fluoro-2-(1,2,3,5,6,7-hexahydropyrrolizin-8-ylmethoxy)pyrido [4,3-d]pyrimidin-7-yl]naphthalen-2-ol]
5.00 to 7.00	5.00 to 7.00		Oc1cc(-c2ncc3c(N4CC5COCC5C4)nc(OCC45CCCN4CCC5)nc3c2F)c2ccccc2c1 (stereo not drawn) [Example 37, 4-[4-(1,3,3a,4,6,6a-hexahydrofuro[3,4-c]pyrrol-5-yl)-8-fluoro-2-(1,2,3,5,6,7-hexahydropyrrolizin-8-ylmethoxy)pyrido [4,3-d]pyrimidin-7-yl]naphthalen-2-ol]
5.00 to 7.00	5.00 to 7.00		COC1CCCN(c2nc(OCC34CCCN3CCC4)nc3c(F)c(-c4cc(O)cc5ccccc45)ncc23)C1 (stereo not drawn) [Example 42, 4-[8-fluoro-2-(1,2,3,5,6,7-hexahydropyrrolizin-8-ylmethoxy)-4-(3-methoxy-1-piperidyl)pyrido[4,3-d]pyrimidin-7-yl]naphthalen-2-ol]
5.00 to 7.00	5.00 to 7.00		Oc1cc(-c2ncc3c(N4CCC5(CCOC5)C4)nc(OCC45CCCN4CCC5)nc3c2F)c2ccccc2c1 (stereo not drawn) [Example 48, 4-[8-fluoro-2-(1,2,3,5,6,7-hexahydropyrrolizin-8-ylmethoxy)-4-(2-oxa-7-azaspiro[4.4]nonan-7-yl)pyrido [4,3-d]pyrimidin-7-yl]naphthalen-2-ol]
5.00 to 7.00	5.00 to 7.00		Oc1cc(-c2ncc3c(N4CC5COCC(C5)C4)nc(OCC45CCCN4CCC5)nc3c2F)c2ccccc2c1 [Example 49, 4-[8-fluoro-2-(1,2,3,5,6,7-hexahydropyrrolizin-8-ylmethoxy)-4-(3-oxa-7-azabicyclo[3.3.1]nonan-7-yl)pyrido[4,3-d]pyrimidin-7-yl]naphthalen-2-ol]
5.00 to 7.00	5.00 to 7.00		Oc1cc(-c2ncc3c(N4CC5(CCCOC5)C4)nc(OCC45CCCN4CCC5)nc3c2F)c2ccccc2c1 [Example 53, 4-[8-fluoro-2-(1,2,3,5,6,7-hexahydropyrrolizin-8-ylmethoxy)-4-(6-oxa-2-azaspiro[3.5]nonan-2-yl)pyrido[4,3-d]pyrimidin-7-yl]naphthalen-2-ol]
5.00 to 7.00	5.00 to 7.00		Oc1cc(-c2ncc3c(N4CCn5cncc5C4)nc(OCC45CCCN4CCC5)nc3c2F)c2ccccc2c1 [Example 58, 4-[4-(6,8-dihydro-5H-imidazo[1,5-a]pyrazin-7-yl)-8-fluoro-2-(1,2,3,5,6,7-hexahydropyrrolizin-8-ylmethoxy)pyrido [4,3-d]pyrimidin-7-yl]naphthalen-2-ol]
5.00 to 7.00	5.00 to 7.00		Oc1cc(-c2ncc3c(N4CCn5ccnc5C4)nc(OCC45CCCN4CCC5)nc3c2F)c2ccccc2c1 [Example 60, 4-[4-(6,8-dihydro-5H-imidazo[1,2-a]pyrazin-7-yl)-8-fluoro-2-(1,2,3,5,6,7-hexahydropyrrolizin-8-ylmethoxy)pyrido [4,3-d]pyrimidin-7-yl]naphthalen-2-ol]
5.00 to 7.00	5.00 to 7.00		Oc1cc(-c2ncc3c(N4CCc5[nH]ncc5C4)nc(OCC45CCCN4CCC5)nc3c2F)c2ccccc2c1 [Example 61, 4-[8-fluoro-2-(1,2,3,5,6,7-hexahydropyrrolizin-8-ylmethoxy)-4-(1,4,6,7-tetrahydropyrazolo [4,3-c]pyridin-5-yl)pyrido[4,3-d]pyrimidin-7-yl]naphthalen-2-ol]
5.00 to 7.00	5.00 to 7.00		Oc1cc(-c2ncc3c(N4CCc5cn[nH]c5C4)nc(OCC45CCCN4CCC5)nc3c2F)c2ccccc2c1 [Example 62, 4-[8-fluoro-2-(1,2,3,5,6,7-hexahydropyrrolizin-8-ylmethoxy)-4-(1,4,5,7-tetrahydropyrazolo [3,4-c]pyridin-6-yl)pyrido[4,3-d]pyrimidin-7-yl]naphthalen-2-ol]
